“Also recorded” adds a separate entry of the source. Where two headings read alike, the source gives them in different places. Each block holds one molecule with its values, some of them ahead of it.
What was measured:
[1] = tested on: MCF-7 (breast adenocarcinoma); test: SRB (sulforhodamine B) viability assay, MCF-7; format: cell-based, human; conditions: SRB assay
Method: (§1) The cytotoxicity of the complexes C1–C5 was estimated by examining cell viability using the sulforhodamine B assay. […] However, due to the very poor solubility of the most polar complex C5 in acetone, its initial solution had to be prepared in polar N,N-dimethylacetamide (DMA) (see Section 3.7). Cisplatin was used as the reference drug. The results are presented as IC50 (50% inhibitory concentration), i.e., concentrations that reduce cell survival by 50%. The test was conducted on three cancer cell lines and one normal healthy cell line, namely, breast adenocarcinoma (MCF-7), ovarian adenocarcinoma (ES-2), lung adenocarcinoma (A549), and murine embryonic fibroblast (BALB/3T3).
(§2) Three solid tumor cell lines were used in this study: MCF-7 (breast adenocarcinoma), ES-2 (ovarian adenocarcinoma), and A549 (lung adenocarcinoma). The BALB/3T3 (mouse embryonic fibroblast) cell line was used as a comparative nonpathological tissue. All cell lines were purchased from the American Type Culture Collection (ATCC, Rockville, MD, USA). The preparation of cell cultures for cytotoxicity experiments is described in detail in the following article.
(§3) The initial solutions for subsequent dilutions in biological medium were prepared in a similar manner as described previously. […] The complex C5 was dissolved in the dimethylacetamide (DMA). All the initial solutions were prepared ex tempore and then were added to the culture medium 1:9 (v/v) to obtain a stock solution of 1 mg/mL.
(§4) The test was prepared and performed in the same manner as detailed in the following cited works.

[2] = tested on: ES-2 (ovarian adenocarcinoma); test: SRB (sulforhodamine B) viability assay, ES-2; format: cell-based, human
Method: as §1, §2, §3, §4

[3] = tested on: A549 (lung adenocarcinoma); test: SRB (sulforhodamine B) viability assay, A549; format: cell-based, human; conditions: SRB assay
Method: as §1, §2, §3, §4

[4] = tested on: BALB/3T3 (mouse embryonic fibroblast); test: SRB (sulforhodamine B) viability assay, normal cells BALB/3T3; format: cell-based; conditions: normoxia, read-out: IC50 ± SD, Normal Cells BALB/3T3, Normoxia
Method: as §1, §2, §3, §4

[5] = TLC Rf as a measure of relative lipophilicity; format: physicochemical; conditions: silica gel TLC Al foils
Method: Measurement of the melting points (m.p.) of the obtained compounds was performed with the Büchi M560 melting point device (BÜCHI Labortechnik AG, CH-9230 Flawil/SG, Flawil, Switzerland) and was uncorrected. The ESI-MS (electrospray ionization mass spectroscopy) spectra were recorded with the compactTM Bruker Daltonics Electrospray Ionization Quadrupole Time-of-Flight (ESI-Q-TOF) spectrometer (Bruker Daltonics GmbH, Bremen, Germany). The ESI-MS measurements for new compounds were performed in both positive- and negative-ion mode in LC-MS-grade using LC-MS grade methanol as a solvent. ESI-MS spectral analysis and the simulation of the theoretical monoisotopic mass of detected ions were performed using Bruker Compass Data Analysis 4.2 software (Bruker Daltonics GmbH, Bremen, Germany). All ^1H and ^13C-NMR spectra were recorded on the following instruments: Bruker NMR AVANCE III™ 600 MHz spectrometer with Ascend™ technology magnet with a quadruple resonance NMR ‘inverse’ cryoprobe (Bruker Corporation, Billerica, MA, USA) and/or Bruker ARX-300 (300 MHz) spectrometer (Bruker Analytische Messtechnik GmbH, Rheinstetten, Germany). The NMR measurements of samples of the compounds were carried out at room temperature (20–25 °C) using 5 mm tubes in deuterated acetone-d6. NMR chemical shifts were referenced to the solvent signal, i.e., for ^1H-NMR: δ (quintet of residual acetone-d6) = 2.05 ppm and for ^13C-NMR: δ (septet of acetone-d6) = 29.84 ppm. The Nicolet iS50 FT-IR spectrophotometer (Thermo Fisher Scientific Inc., Waltham, MA, USA) was used to record the Attenuated Total Reflectance IR (ATR-FT-IR) spectra (at MIR range 4000–450 cm^−1). Recording of spectra was performed on the diamond crystal surface (32 scans, resolution: 1 cm^−1, measurement temperature: 20–25 °C) with ATR intensity correction in the Laboratory of Elemental Analysis and Structural Research, Faculty of Pharmacy, Wroclaw Medical University. A Fourier transform, Bruker VERTEX 70V vacuum spectrometer equipped with an air-cooled DTGS detector was used to obtain the Far-IR (far-infrared) spectra (below 500 cm^−1) of the Pt(II) complexes. The spectra measurements were conducted with the ATR accessory, such as a diamond ATR crystal, in the resolution of 1 cm^−1 with 64 scans in the Laboratory of Vibrational Spectroscopy of the Faculty of Chemistry at Wrocław University of Science and Technology. No ATR intensity correction was applied to Far-IR spectra. Omnic 9.3.30 and Omnic Specta 2.0 software (Thermo Fisher Scientific Inc.) was used to process and analyze spectra. A double beam U-2800 Spectrophotometer (Hitachi—Science & Technology, Tokyo, Japan) was used to record UV spectra of Pt-complexes (C1 and C2) and reaction rate measurements of the GSH complexes. Dioxane solutions of complexes were used in the following concentrations: c = 2 × 10^−5 M and 3 × 10^−5 M, respectively, for C1 and C2. Measurement of UV spectra was conducted in quartz cuvettes (path length = 10.0 mm) in the range 190–400 nm (sampling interval 1 nm, scan speed 200 nm/min). All UV experiments were performed in the Laboratory of Elemental Analysis and Structural Research, Faculty of Pharmacy, Wroclaw Medical University. Baselines were corrected with pure dioxane as the reference solvent. Thin-layer chromatography (TLC) was used to monitor the progress of the reaction course and determine the purity of the synthesized compounds. Silica gel on TLC Al foils with fluorescent indicator 254 nm (Sigma-Aldrich, Merck Group, Darmstadt, Germany) was used as the stationary phase and chloroform–acetone mixtures (volume ratios 9:1, 7:3, and 1:1) as the eluent. Detection of Pt(II) compounds in the chromatograms was performed using a 0.5% acetone solution of rubeanic acid (dithiooxamide), and organic impurities were detected by observing the plates under UV light at 250 nm. […]

[6] = Solubility in solvents (qualitative); format: physicochemical
[7] = TLC Rf as a measure of relative lipophilicity; format: physicochemical; conditions: silica gel TLC Al foils; remark: listed apart in the source
[8] = cited from earlier work
[9] = hypoxia, read-out: IC50 ± SD, MCF-7 (Breast), Hypoxia
[10] = normoxia, read-out: IC50 ± SD, MCF-7 (Breast), Normoxia
[11] = hypoxia, read-out: IC50 ± SD, ES-2 (Ovarian), Hypoxia
[12] = normoxia, read-out: IC50 ± SD, ES-2 (Ovarian), Normoxia
[13] = normoxia, read-out: IC50 ± SD, A549 (Lung), Normoxia
[14] = earlier work of the authors, same methodology

IC50 [1, 9]: 67.3 ± 28.3 µM
IC50 [1, 10]: 57.6 ± 7.69 µM
IC50 [2, 11]: 50.1 ± 7.97 µM
IC50 [2, 12]: 62.5 ± 22.7 µM
IC50 ± SD, A549 (Lung), Hypoxia ([3]; hypoxia): inactive
IC50 [3, 13]: 66.2 ± 1.15 µM
Rf, Eluent: Chlorofom:Acetone Ratio 1:1 Vol. [5]: 0.655
Rf, Eluent: Chlorofom:Acetone Ratio 9:1 Vol. [5]: 0.005
solubility in acetonitrile ([6]; acetonitrile, relative to acetone): slightly better
solubility in chloroform ([6]; chloroform): practically insoluble
Rf, Eluent: Chlorofom:Acetone Ratio 9:7 Vol. [7]: 0.215
Molecule: cis-Dichlorobis(3-methyl-4-nitroisothiazole-5-carboxamide)platinum(II) [C5]
IC50 [4]: 64.2 ± 15.8 µM
solubility in acetone ([6]; acetone): very poorly soluble; also recorded: weakly soluble

Molecule: Cc1noc(C)c1[N+](=O)[O-].Cc1noc(C)c1[N+](=O)[O-].[Cl][Pt@SP1][Cl] [cis-Pt(NO2Isoxazol)2Cl2]
Half-time, t1/2 of reaction with GSH [8, 14]: 42 min [18]

Molecule: N.N.O=C([O-])C1(C(=O)[O-])CCC1.[Pt+2] [Carboplatin]
Half-time, t1/2 of reaction with GSH ([8]; literature value): 16.7–32.7 h [35]

Molecule: O=C(O)C(=O)O.[NH-][C@@H]1CCCC[C@H]1[NH-].[Pt+2] [Oxaliplatin]
Half-time, t1/2 of reaction with GSH ([8]; literature value, similar conditions): 44 min [35]

Molecule: N.N.[Cl][Pt][Cl] [Cisplatin, cis-diamminodichloroplatinum, reference compound]
IC50 [1, 9]: 9.74 ± 5.84 µM
IC50 [1, 10]: 14.4 ± 1.4 µM
IC50 [2, 11]: 6.28 ± 2.19 µM
IC50 [2, 12]: 9.85 ± 4.68 µM
IC50 ([3]; hypoxia, read-out: IC50 ± SD, A549 (Lung), Hypoxia): 14.8 ± 1.93 µM
IC50 [3, 13]: 12.5 ± 1.64 µM
IC50 [4]: 8.1 ± 5.61 µM

Molecule: Cn1cc([N+](=O)[O-])cn1.Cn1cc([N+](=O)[O-])cn1.[Cl][Pt][Cl] [trans-Pt(NO2Pyraz)2Cl2, trans-[PtCl2 (1-methyl-4-nitropyrazole)2]]
Half-time, t1/2 of reaction with GSH [8, 14]: 13 min [17]

Molecule: Cn1cc([N+](=O)[O-])cn1.Cn1cc([N+](=O)[O-])cn1.[Cl][Pt@SP1][Cl] [cis-Pt(NO2Pyraz)2Cl2]
Half-time, t1/2 of reaction with GSH [8, 14]: 83 min [17]

Molecule: N.N.[Cl][Pt+2][Cl] [Transplatin]
Half-time, t1/2 of reaction with GSH ([8]; literature value): 4 min [36]

Molecule: Cc1noc(C)c1[N+](=O)[O-].Cc1noc(C)c1[N+](=O)[O-].[Cl][Pt][Cl] [trans-Pt(NO2Isoxazol)2Cl2, trans-dichlorobis(3,5-dimethyl-4-nitro-isoxazole)platinum(II)]
Half-time, t1/2 of reaction with GSH [8, 14]: 18 min [18]
